Test results reported in patent US20070026506A1, “METHOD FOR THE PRODUCTION OF TAXOL AND/OR TAXANES FROM CULTURES OF HAZEL CELLS” (Centro Biotecnologie Avanzate, priority 2005, published 2007).

Legend:
Type in all cases: cell-based
[1] = tested on: callus of Corylus avellana; test: regeneration of callus (formation of young plants), Corylus avellana; conditions: about three months from culturing
[2] = tested on: explants of Corylus avellana; test: callus induction from explants of Corylus avellana; conditions: for CALLUS INDUCTION 15 days Leaves (%) / CALLUS INDUCTION 30 days Leaves (%): C. avellana leaves; for CALLUS INDUCTION 15 days Seeds (%) / CALLUS INDUCTION 30 days Seeds (%): C. avellana seeds; for CALLUS INDUCTION 15 days Stems (%) / CALLUS INDUCTION 30 days Stems (%): C. avellana stems
Protocol: (§1) Therefore, in vitro cultures of plant tissues were prepared using leaves, stems and seeds of Corylus avellana (hazel) and of Taxus baccata. Both species used derive from land cultivations in Piedmont and Liguria.
(§2) The plant material was first sterilised, immersing it in a 5% NaClO solution for 20 minutes, and then washed with sterile distilled water three times.
(§3) The plant parts were fragmented and transferred into sterile Petri dishes containing MS solid medium at a concentration of 4.3 g/l, containing vitamins (1 ml/l), sucrose (20 g/l), agar (10 g/l) and phytohormones at different concentrations, all previously sterilised in an autoclave at 121° C. for 15 minutes.
(§4) In the preparation of cultures in vitro 2,4-dichlorophenoxyacetic acid (2,4-D), naphthaleneacetic acid (NAA), benzyladenine (BA) were used as phytohormones, in the following combinations and concentrations: • 2,4-D 1 mg/l • 2,4-D 0.5 mg/l • BA 1 mg/l • BA 0.5 mg/l • 2,4-D 0.5 mg/l+BA 1 mg/l • 2,4-D 1 mg/l+BA 0.5 mg/l • NAA 2 mg/l • NAA 2 mg/l+BA 0.5 mg/l Callus Induction
(§5) For each type of plant tissue (leaf, stem, seed) and for each species (taxus, hazel) at least 96 dishes were prepared: 12 dishes for each hormone concentration or combination. The dishes containing the plant material were kept inside a phytochamber, in the dark and at a constant temperature of 26° C.
(§6) The fragments were transferred, every 15 days, into new dishes with fresh medium containing the corresponding starting hormone or mixture of hormones. After 15 and 30 days from the culturing of the hazel differentiated tissue explants, the formation of the callus was evaluated. The formation of the callus for the taxus was evaluated at 30 and at 60 days, since before then the callus was not clear.

[3] = tested on: callus of Taxus baccata; test: regeneration of callus (formation of young plants), Taxus baccata; conditions: about three months from culturing
[4] = tested on: explants of Taxus baccata; test: callus induction from explants of Taxus baccata; conditions: for CALLUS INDUCTION 30 days Leaves (%) / CALLUS INDUCTION 60 days Leaves (%): T. baccata leaves; for CALLUS INDUCTION 30 days Seeds (%) / CALLUS INDUCTION 60 days Seeds (%): T. baccata seeds; for CALLUS INDUCTION 30 days Stems (%) / CALLUS INDUCTION 60 days Stems (%): T. baccata stems
Protocol: as §1, §2, §3, §4, §5, §6

| Structure (SMILES) | FORMATION OF YOUNG PLANTS (%) C. avellana ([1]; hormone 0.5 mg/l) | FORMATION OF YOUNG PLANTS (%) C. avellana ([1]; hormone 1 mg/l) | CALLUS INDUCTION 15 days Leaves (%) ([2]; hormone 0.5 mg/l) | CALLUS INDUCTION 15 days Leaves (%) ([2]; hormone 1 mg/l) | CALLUS INDUCTION 30 days Leaves (%) ([2]; hormone 0.5 mg/l) | CALLUS INDUCTION 30 days Leaves (%) ([2]; hormone 1 mg/l) | CALLUS INDUCTION 15 days Seeds (%) ([2]; hormone 0.5 mg/l) | CALLUS INDUCTION 15 days Seeds (%) ([2]; hormone 1 mg/l) | CALLUS INDUCTION 30 days Seeds (%) ([2]; hormone 0.5 mg/l) | CALLUS INDUCTION 30 days Seeds (%) ([2]; hormone 1 mg/l) | CALLUS INDUCTION 15 days Stems (%) ([2]; hormone 0.5 mg/l) | CALLUS INDUCTION 15 days Stems (%) ([2]; hormone 1 mg/l) | CALLUS INDUCTION 30 days Stems (%) ([2]; hormone 0.5 mg/l) | CALLUS INDUCTION 30 days Stems (%) ([2]; hormone 1 mg/l) | FORMATION OF YOUNG PLANTS (%) T. baccata ([3]; hormone 0.5 mg/l) | FORMATION OF YOUNG PLANTS (%) T. baccata ([3]; hormone 1 mg/l) | CALLUS INDUCTION 30 days Leaves (%) ([4]; hormone 0.5 mg/l) | CALLUS INDUCTION 30 days Leaves (%) ([4]; hormone 1 mg/l) | CALLUS INDUCTION 60 days Leaves (%) ([4]; hormone 0.5 mg/l) | CALLUS INDUCTION 60 days Leaves (%) ([4]; hormone 1 mg/l) | also measured |
| --- | --- | --- | --- | --- | --- | --- | --- | --- | --- | --- | --- | --- | --- | --- | --- | --- | --- | --- | --- | --- | --- |
| O=C(O)COc1ccc(Cl)cc1Cl [2,4-D, 2,4-dichlorophenoxyacetic acid] | 15.8% | 15.5% | 40.8% | 35.3% | 41.86% | 35.5% | 27.7% | 28.3% | 61.6% | 56.2% | 30.5% | 25.0% | 75.0% | 68.5% | 0% | 0% | 10.9% | 25.3% | 63.8% | 56.3% | CALLUS INDUCTION 30 days Seeds (%) ([4]; hormone 0.5 mg/l): 17.4%; CALLUS INDUCTION 30 days Seeds (%) ([4]; hormone 1 mg/l): 26.5%; CALLUS INDUCTION 60 days Seeds (%) ([4]; hormone 0.5 mg/l): 43.7%; CALLUS INDUCTION 60 days Seeds (%) ([4]; hormone 1 mg/l): 37.7%; CALLUS INDUCTION 30 days Stems (%) ([4]; hormone 0.5 mg/l): 46.8%; CALLUS INDUCTION 30 days Stems (%) ([4]; hormone 1 mg/l): 67.0%; CALLUS INDUCTION 60 days Stems (%) ([4]; hormone 0.5 mg/l): 65.8%; CALLUS INDUCTION 60 days Stems (%) ([4]; hormone 1 mg/l): 76.3% |
| c1ccc(CNc2ncnc3nc[nH]c23)cc1 [BA, benzyladenine] | 13.3% | 8.7% | 1.7% | 0% | 4.6% | 4.6% | 5.1% | 4.0% | 10.3% | 13.8% | 0% | 2.5% | 0% | 15.0% | 0% | 0% | 2.0% | 2.0% | 4.5% | 3.0% | suitability for inducing callus from hazel ([2]; used alone at a concentration of 0.5 and 1 mg/l): least suitable for inducing callus from hazel; CALLUS INDUCTION 30 days Seeds (%) ([4]; hormone 0.5 mg/l): 6.2%; CALLUS INDUCTION 30 days Seeds (%) ([4]; hormone 1 mg/l): 0%; CALLUS INDUCTION 60 days Seeds (%) ([4]; hormone 0.5 mg/l): 32.7%; CALLUS INDUCTION 60 days Seeds (%) ([4]; hormone 1 mg/l): 0%; CALLUS INDUCTION 30 days Stems (%) ([4]; hormone 0.5 mg/l): 2.0%; CALLUS INDUCTION 30 days Stems (%) ([4]; hormone 1 mg/l): 2.5%; CALLUS INDUCTION 60 days Stems (%) ([4]; hormone 0.5 mg/l): 9.0%; CALLUS INDUCTION 60 days Stems (%) ([4]; hormone 1 mg/l): 2.8%; activity in callus induction of taxus cultures ([4]; taxus cultures, exception stated for callus from seed at 60 days): not to be very active |
| O=C(O)Cc1cccc2ccccc12 [NAA, naphthaleneacetic acid] | – | – | – | – | – | – | – | – | – | – | – | – | – | – | – | – | – | – | – | – | FORMATION OF YOUNG PLANTS (%) C. avellana ([1]; hormone 2 mg/l): 14.4%; CALLUS INDUCTION 15 days Leaves (%) ([2]; hormone 2 mg/l): 8.3%; CALLUS INDUCTION 30 days Leaves (%) ([2]; hormone 2 mg/l): 22.1%; CALLUS INDUCTION 15 days Seeds (%) ([2]; hormone 2 mg/l): 4.4%; CALLUS INDUCTION 30 days Seeds (%) ([2]; hormone 2 mg/l): 41.3%; CALLUS INDUCTION 15 days Stems (%) ([2]; hormone 2 mg/l): 8.3%; CALLUS INDUCTION 30 days Stems (%) ([2]; hormone 2 mg/l): 5.4%; FORMATION OF YOUNG PLANTS (%) T. baccata ([3]; hormone 2 mg/l): 1%; CALLUS INDUCTION 30 days Leaves (%) ([4]; hormone 2 mg/l): 23.8%; CALLUS INDUCTION 60 days Leaves (%) ([4]; hormone 2 mg/l): 33.0%; CALLUS INDUCTION 30 days Seeds (%) ([4]; hormone 2 mg/l): 28.0%; CALLUS INDUCTION 60 days Seeds (%) ([4]; hormone 2 mg/l): 52.0%; CALLUS INDUCTION 30 days Stems (%) ([4]; hormone 2 mg/l): 55.0%; CALLUS INDUCTION 60 days Stems (%) ([4]; hormone 2 mg/l): 56.3% |
